# ChEMBL document CHEMBL5236629, “Antioxidant and Neuroprotective Effects of the First Tryptophyllin Found in Snake Venom (Bothrops moojeni)” (J Nat Prod, 2022)
# Activity calls are given as the source filed them. The rule behind the calls is not given here. Where a SMILES comes first, the peptide text is derived from it.
# What was measured:
# [1] = Antioxidant activity assessed as trolox equivalent of ABTS radical scavenging activity measured for 6 mins; assay type: functional
# [2] = test system: N2a; assay: Antioxidant activity in arsenite-induced mouse Neuro2a cells assessed as increase in SOD level at 100 uM incubated for 3 hrs by Western blot analysis; assay type: functional, cell-based
# [3] = Antioxidant activity assessed as trolox equivalent of AAPH radical scavenging activity preincubated for 15 mins followed by 10 sec incubation under shaking condition and measured every minute for 2 hrs by ORAC fluorescence based microplate reader analysis; assay type: functional; conditions: time 8110.0 sec
# [4] = Cytotoxicity against human SK-N-BE(2) cells assessed as reduction in cell viability incubated for 24 hrs by MTT assay; assay type: toxicity, cell-based
# [5] = test system: N2a; assay: Antioxidant activity in arsenite-induced mouse Neuro2a cells assessed as reduction in Nrf2 protein level at 100 uM incubated for 3 hrs by Western blot analysis; assay type: functional, cell-based
# [6] = Protection against AAPH-induced hemolysis in human RBC at 50 to 100 ug/ml preincubated with compound for 20 mins followed bu AAPH addition and measured after 3 hrs by spectrophotometric analysis relative to control; assay type: functional, Erythrocyte; conditions: dose 50-100 µg/ml; time 200 min; 3.333 h; at 50 to 100 µg/mL
# [7] = test system: Erythrocyte; assay: Protection against AAPH-induced hemolysis in human RBC at 25 to 400 ug/ml preincubated with compound for 20 mins followed bu AAPH addition and measured after 3 hrs by spectrophotometric analysis; assay type: functional, cell-based; conditions: dose 25-400 µg/ml, time 200.0 min
# [8] = test system: SK-N-BE(2); assay: Antioxidant acitivity against PMA-stimulated human SK-N-BE(2) cells assessed as reduction in PMA-stimulated ROS level at 50 to 100 uM incubated for 60 mins by DCFH-DA staining based flow cytometric analysis; assay type: functional, cell-based; conditions: dose 50-100 µM
# [9] = test system: SK-N-BE(2); assay: Antioxidant acitivity against PMA-stimulated human SK-N-BE(2) cells assessed as reduction in PMA-stimulated RNS level at 50 uM incubated for 60 mins by DCFH-DA staining based flow cytometric analysis; assay type: functional, cell-based
# [10] = Hemolytic activity in human red blood cell assessed as cell membrane disruption at 12.5 to 400 ug/ml incubated for 1 hrs by microplate reader analysis; assay type: toxicity, cell-based; conditions: erythrocyte, dose 12.5-400 µg/ml
# [11] = Antioxidant activity assessed as protection against AAPH-induced DNA degradation in to linear form incubated for 1 hrs by SYBR dye based electrophoresis; assay type: functional
structure (smiles),measurement,setting,value
CC[C@H](C)[C@H](NC(=O)[C@H](Cc1c[nH]c2ccccc12)NC(=O)[C@@H]1CCCN1C(=O)[C@@H](N)Cc1ccccc1)C(=O)N[C@H](C(=O)N[C@@H](CO)C(N)=O)[C@@H](C)CC (H-FPWIIS-NH2),Activity,[1],796 µM/g
same,Activity,[2],inactive
same,Activity,[3],674 µM/g
same,CC50 at 24 h,[4],1730 µM
same,Activity,[5],Active
same,Activity,[6],>75%
same,Activity,[7],Active
same,Activity,[8],Active
same,Activity,[9],Active
same,Activity,[10],Non-Toxic
same,Activity,[11],Active
